Test results published in ChEMBL document CHEMBL1130062 (J Med Chem, 1997).

What was measured:
Dihydrofolate reductase = molecular target: T1, Dihydrofolate reductase (Pneumocystis carinii, UniProt P16184)
T1 sequence (P16184 whole entry): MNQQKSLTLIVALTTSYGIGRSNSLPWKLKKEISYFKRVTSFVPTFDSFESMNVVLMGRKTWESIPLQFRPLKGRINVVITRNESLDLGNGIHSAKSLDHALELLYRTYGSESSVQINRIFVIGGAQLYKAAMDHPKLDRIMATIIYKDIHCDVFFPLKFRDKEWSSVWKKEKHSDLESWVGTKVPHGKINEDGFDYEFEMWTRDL
Description: In vitro inhibitory concentration against Pneumocystis carinii dihydrofolate reductase

[1] = molecular target: T2, Bifunctional dihydrofolate reductase-thymidylate synthase (Toxoplasma gondii, UniProt Q07422); assay: Inhibitory concentration against Toxoplasma gondii dihydrofolate reductase
T2 sequence (Q07422 whole entry): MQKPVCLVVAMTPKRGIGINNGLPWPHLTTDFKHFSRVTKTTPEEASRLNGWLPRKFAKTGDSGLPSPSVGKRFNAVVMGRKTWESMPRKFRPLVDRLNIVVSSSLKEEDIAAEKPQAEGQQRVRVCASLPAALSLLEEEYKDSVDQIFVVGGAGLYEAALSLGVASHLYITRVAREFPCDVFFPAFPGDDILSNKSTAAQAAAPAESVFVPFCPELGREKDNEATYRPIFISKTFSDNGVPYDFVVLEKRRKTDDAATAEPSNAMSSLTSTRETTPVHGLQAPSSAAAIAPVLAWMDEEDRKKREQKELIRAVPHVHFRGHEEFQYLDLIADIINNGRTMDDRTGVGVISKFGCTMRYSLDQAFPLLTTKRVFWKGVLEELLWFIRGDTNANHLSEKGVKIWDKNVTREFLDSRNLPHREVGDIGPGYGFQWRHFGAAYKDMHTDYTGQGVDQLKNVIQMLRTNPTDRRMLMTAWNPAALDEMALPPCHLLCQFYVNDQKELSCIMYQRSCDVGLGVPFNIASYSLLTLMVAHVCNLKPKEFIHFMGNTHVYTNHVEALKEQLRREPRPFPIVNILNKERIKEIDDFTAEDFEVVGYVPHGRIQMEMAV

[2] = Selectivity index measured as the ratio of IC50 for rat liver DHFR to IC50 for Toxoplasma gondii DHFR.
Pneumocystis carinii = assay: Concentration required to inhibit uptake of [3H]4-aminobenozoic acid over 24 hr against Pneumocystis carinii microorganisms extracted from immunocompromized rats.; conditions: Rattus norvegicus

Compound | IC50 (Dihydrofolate reductase) | also measured
CCCN(C)/N=N/c1cc(-c2c(N)nc(N)nc2CC)ccc1Cl [listing 1 of 2 here] | 10.2 µM | –
CCc1nc(N)nc(N)c1-c1ccc(Cl)c(/N=N/N(CCO)C(C)(C)C)c1 | 4.9 µM | –
CCc1nc(N)nc(N)c1-c1ccc(Cl)c(/N=N/N(C)CCO)c1 | 3.5 µM | –
CCc1nc(N)nc(N)c1-c1ccc(Cl)c(/N=N/N2CCc3ccccc3C2)c1 | 5 µM | –
CCCN(C)/N=N/c1cc(-c2c(N)nc(N)nc2CC)ccc1Cl [listing 2 of 2 here] | 7.6 µM | –
CCc1nc(N)nc(N)c1-c1ccc(Cl)c(N=[N+]=[N-])c1 | 1.33 µM | IC50 [1]: 0.69 µM; Selectivity index [2]: 0.5
CCc1nc(N)nc(N)c1-c1ccc(Cl)c(/N=N/N2CCCCC2)c1 | 40.4 µM | –
N=C(N)c1ccc(OCCCCCOc2ccc(C(=N)N)cc2)cc1 | – | IC50 (Pneumocystis carinii): 2.5 µM
CCc1nc(N)nc(N)c1-c1ccc(Cl)c([N+](=O)[O-])c1 | – | IC50 [1]: 0.013 µM; Selectivity index [2]: 1.1
CCc1nc(N)nc(N)c1-c1ccc(Cl)c(/N=N/N(C)C)c1 [listing 1 of 2 here] | 6 µM | –
CCc1nc(N)nc(N)c1-c1ccc(Cl)c(/N=N/N(C(C)(C)C)C(C)(C)C)c1 | > 11 µM | –
CCc1nc(N)nc(N)c1-c1ccc(Cl)c([N+]#N)c1 | – | IC50 [1]: 0.023 µM
CCCN(CCO)/N=N/c1cc(-c2c(N)nc(N)nc2CC)ccc1Cl | 2.5 µM | –
CCc1nc(N)nc(N)c1-c1ccc(N(C)Cc2ccccc2)c([N+](=O)[O-])c1 | – | IC50 [1]: 0.091 µM
CCc1nc(N)nc(N)c1-c1ccc(Cl)c(/N=N/N(CCO)Cc2ccccc2)c1 | 0.26 µM | IC50 (Pneumocystis carinii): 11.1 µg/mL
CCc1nc(N)nc(N)c1-c1ccc(Cl)c(/N=N/N(CCOC(C)=O)Cc2ccccc2)c1 | – | IC50 (Pneumocystis carinii): 43.9 µg/mL
CCc1nc(N)nc(N)c1-c1ccc(Cl)c(/N=N/N2CCOCC2)c1 | – | IC50 (Pneumocystis carinii): 49.7 µg/mL; IC50 [1]: 0.19 µM
CCc1nc(N)nc(N)c1-c1ccc(Cl)c(/N=N/N2CCC(O)CC2)c1 | 3.3 µM | –
CCc1nc(N)nc(N)c1-c1ccc(Cl)c(/N=N/N2CCN(C)CC2)c1 | 8.5 µM | –
CCc1nc(N)nc(N)c1-c1ccc(Cl)c(/N=N/N(C)Cc2ccccc2)c1 | 0.57 µM | –
CCc1nc(N)nc(N)c1-c1ccc(Cl)c(/N=N/N(C)CC2OCCO2)c1 | 0.57 µM | Selectivity index [2]: 28
CCc1nc(N)nc(N)c1-c1ccc(Cl)c(/N=N/N(C)CC)c1 [listing 1 of 2 here] | 14.1 µM | –
CCc1nc(N)nc(N)c1-c1ccc(Cl)c(/N=N/N(C)C)c1 [listing 2 of 2 here] | 2.8 µM | IC50 [1]: 0.31 µM
CCc1nc(N)nc(N)c1-c1ccc(Cl)c(/N=C/N(C)C)c1 | 10.6 µM | IC50 [1]: 1.6 µM
CCc1nc(N)nc(N)c1-c1ccc(Cl)c(/N=N/N(CCOC)CCOC)c1 | – | IC50 (Pneumocystis carinii): 30.5 µg/mL; IC50 [1]: 8.8 µM; Selectivity index [2]: 3
CCc1nc(N)nc(N)c1-c1ccc(Cl)c(/N=N/N(CCO)CCO)c1 | 0.44 µM | IC50 (Pneumocystis carinii): 46.6 µg/mL
CCc1nc(N)nc(N)c1-c1ccc(Cl)c(/N=N/N2CCCC2)c1 | > 11 µM | –
CCc1nc(N)nc(N)c1-c1ccc(Cl)c(/N=N/N(C)CC)c1 [listing 2 of 2 here] | 6.6 µM | –
CCc1nc(N)nc(N)c1-c1ccc(Cl)c(/N=N/N(CC)CCO)c1 | 11.5 µM | –
